According to PubChem BioAssay (NCI):
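Assay format: 96-well plates, 48-hour exposure. At the GI50, growth is halved. The concentration for full growth arrest is given as TGI.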

What was measured:
Experiment in all cases: inhibition of tumour cell growth, NCI panel, 48 h
COLO 205 colon = system: COLO 205 colon
SK-MEL-5 melanoma = system: SK-MEL-5 melanoma
A549 NSCLC = system: A549 NSCLC
SNB-19 CNS = system: SNB-19 CNS
UACC-257 melanoma = system: UACC-257 melanoma
SW-620 colon = system: SW-620 colon
NCI/ADR-RES ovarian = system: NCI/ADR-RES ovarian
ACHN renal = system: ACHN renal
HCC-2998 colon = system: HCC-2998 colon
CAKI-1 renal = system: CAKI-1 renal
CCRF-CEM leukemia = system: CCRF-CEM leukemia
OVCAR-3 ovarian = system: OVCAR-3 ovarian
786-0 renal = system: 786-0 renal
A498 renal = system: A498 renal
UACC-62 melanoma = system: UACC-62 melanoma
OVCAR-8 ovarian = system: OVCAR-8 ovarian
SK-MEL-28 melanoma = system: SK-MEL-28 melanoma
DU-145 prostate = system: DU-145 prostate
HT29 colon = system: HT29 colon
T-47D breast = system: T-47D breast
TK-10 renal = system: TK-10 renal
PC-3 prostate = system: PC-3 prostate
SF-295 CNS = system: SF-295 CNS
LOX IMVI melanoma = system: LOX IMVI melanoma
HOP-92 NSCLC = system: HOP-92 NSCLC
HCT-15 colon = system: HCT-15 colon
SF-268 CNS = system: SF-268 CNS
NCI-H460 lung = system: NCI-H460 lung
SN12C renal = system: SN12C renal
KM12 colon = system: KM12 colon
BT-549 breast = system: BT-549 breast
EKVX NSCLC = system: EKVX NSCLC
RPMI-8226 leukemia = system: RPMI-8226 leukemia
SR leukemia = system: SR leukemia
MALME-3M melanoma = system: MALME-3M melanoma
RXF 393 renal = system: RXF 393 renal
NCI-H23 lung = system: NCI-H23 lung
NCI-H522 lung = system: NCI-H522 lung
MDA-MB-231 breast = system: MDA-MB-231 breast
SNB-75 CNS = system: SNB-75 CNS
K-562 leukemia = system: K-562 leukemia
HL-60(TB) leukemia = system: HL-60(TB) leukemia
MCF7 breast = system: MCF7 breast
HOP-62 NSCLC = system: HOP-62 NSCLC
SK-MEL-2 melanoma = system: SK-MEL-2 melanoma
MDA-MB-435 = system: MDA-MB-435
HCT-116 colon = system: HCT-116 colon
SK-OV-3 ovarian = system: SK-OV-3 ovarian
M14 melanoma = system: M14 melanoma
SF-539 CNS = system: SF-539 CNS
UO-31 renal = system: UO-31 renal
OVCAR-5 ovarian = system: OVCAR-5 ovarian
MOLT-4 leukemia = system: MOLT-4 leukemia
OVCAR-4 ovarian = system: OVCAR-4 ovarian
MDA-MB-468 breast = system: MDA-MB-468 breast
HS 578T breast = system: HS 578T breast
U251 CNS = system: U251 CNS

Cc1nc(Nc2ncc(C(=O)Nc3c(C)cccc3Cl)s2)cc(N2CCN(CCCNC(=O)COc3ccc(C4CCC(=O)NC4=O)cc3)CC2)n1 (stereo not drawn)
GI50 (COLO 205 colon): 0.0695 µM
TGI (COLO 205 colon): > 100 µM
GI50 (SK-MEL-5 melanoma): 66.7 µM
TGI (SK-MEL-5 melanoma): > 100 µM
GI50 (A549 NSCLC): 2.23 µM
TGI (A549 NSCLC): > 48.1 µM
GI50 (SNB-19 CNS): > 100 µM
TGI (SNB-19 CNS): > 100 µM
GI50 (UACC-257 melanoma): > 100 µM
TGI (UACC-257 melanoma): > 100 µM
GI50 (SW-620 colon): > 100 µM
TGI (SW-620 colon): > 100 µM
GI50 (NCI/ADR-RES ovarian): > 100 µM
TGI (NCI/ADR-RES ovarian): > 100 µM
GI50 (ACHN renal): 0.757 µM
TGI (ACHN renal): > 100 µM
GI50 (HCC-2998 colon): > 100 µM
TGI (HCC-2998 colon): > 100 µM
GI50 (CAKI-1 renal): 0.206 µM
TGI (CAKI-1 renal): 1.83 µM
GI50 (CCRF-CEM leukemia): 34 µM
TGI (CCRF-CEM leukemia): > 100 µM
GI50 (OVCAR-3 ovarian): 0.275 µM
TGI (OVCAR-3 ovarian): > 100 µM
GI50 (786-0 renal): 0.445 µM
TGI (786-0 renal): > 100 µM
GI50 (A498 renal): 2.93 µM
TGI (A498 renal): > 100 µM
GI50 (UACC-62 melanoma): > 100 µM
TGI (UACC-62 melanoma): > 100 µM
GI50 (OVCAR-8 ovarian): 0.934 µM
TGI (OVCAR-8 ovarian): > 52.2 µM
GI50 (SK-MEL-28 melanoma): > 100 µM
TGI (SK-MEL-28 melanoma): > 100 µM
GI50 (DU-145 prostate): 2.3 µM
TGI (DU-145 prostate): > 100 µM
GI50 (HT29 colon): 0.181 µM
TGI (HT29 colon): 2.54 µM
GI50 (T-47D breast): 0.454 µM
TGI (T-47D breast): > 100 µM
GI50 (TK-10 renal): 0.517 µM
TGI (TK-10 renal): 4.12 µM
GI50 (PC-3 prostate): 2.43 µM
TGI (PC-3 prostate): > 100 µM
GI50 (SF-295 CNS): 6.78 µM
TGI (SF-295 CNS): > 100 µM
GI50 (LOX IMVI melanoma): 0.0182 µM
TGI (LOX IMVI melanoma): 0.218 µM
GI50 (HOP-92 NSCLC): < 0.01 µM
TGI (HOP-92 NSCLC): 0.0498 µM
GI50 (HCT-15 colon): 9.01 µM
TGI (HCT-15 colon): > 100 µM
GI50 (SF-268 CNS): 0.11 µM
TGI (SF-268 CNS): > 100 µM
GI50 (NCI-H460 lung): > 100 µM
TGI (NCI-H460 lung): > 100 µM
GI50 (SN12C renal): 0.0309 µM
TGI (SN12C renal): > 100 µM
GI50 (KM12 colon): > 91.9 µM
TGI (KM12 colon): > 100 µM
GI50 (BT-549 breast): > 100 µM
TGI (BT-549 breast): > 100 µM
GI50 (EKVX NSCLC): 1.85 µM
TGI (EKVX NSCLC): > 100 µM
GI50 (RPMI-8226 leukemia): > 100 µM
TGI (RPMI-8226 leukemia): > 100 µM
GI50 (SR leukemia): 2.8 µM
TGI (SR leukemia): > 100 µM
GI50 (MALME-3M melanoma): > 100 µM
TGI (MALME-3M melanoma): > 100 µM
GI50 (RXF 393 renal): 0.0147 µM
TGI (RXF 393 renal): 0.081 µM
GI50 (NCI-H23 lung): 16.9 µM
TGI (NCI-H23 lung): > 100 µM
GI50 (NCI-H522 lung): 1.3 µM
TGI (NCI-H522 lung): > 100 µM
GI50 (MDA-MB-231 breast): 0.0256 µM
TGI (MDA-MB-231 breast): 10.6 µM
GI50 (SNB-75 CNS): < 0.01 µM
GI50 (K-562 leukemia): < 0.01 µM
TGI (K-562 leukemia): > 100 µM
GI50 (HL-60(TB) leukemia): > 79.5 µM
TGI (HL-60(TB) leukemia): > 100 µM
GI50 (MCF7 breast): > 100 µM
TGI (MCF7 breast): > 100 µM
GI50 (HOP-62 NSCLC): 0.336 µM
TGI (HOP-62 NSCLC): > 100 µM
GI50 (SK-MEL-2 melanoma): > 100 µM
TGI (SK-MEL-2 melanoma): > 100 µM
GI50 (MDA-MB-435): > 100 µM
TGI (MDA-MB-435): > 100 µM
GI50 (HCT-116 colon): 2.5 µM
TGI (HCT-116 colon): > 92.5 µM
GI50 (SK-OV-3 ovarian): 0.505 µM
TGI (SK-OV-3 ovarian): 6.95 µM
GI50 (M14 melanoma): > 59.2 µM
TGI (M14 melanoma): > 100 µM
GI50 (SF-539 CNS): 0.0507 µM
TGI (SF-539 CNS): 4.7 µM
GI50 (UO-31 renal): 1.47 µM
TGI (UO-31 renal): > 100 µM
GI50 (OVCAR-5 ovarian): 0.191 µM
TGI (OVCAR-5 ovarian): > 100 µM
GI50 (MOLT-4 leukemia): 7.64 µM
TGI (MOLT-4 leukemia): > 100 µM
GI50 (OVCAR-4 ovarian): > 100 µM
TGI (OVCAR-4 ovarian): > 100 µM
GI50 (MDA-MB-468 breast): 0.172 µM
TGI (MDA-MB-468 breast): 5.16 µM
GI50 (HS 578T breast): 0.0167 µM
TGI (HS 578T breast): 0.13 µM
GI50 (U251 CNS): > 100 µM
TGI (U251 CNS): > 100 µM
